Test results reported in patent publication US20260125730A1, “A NEW INDUCER FOR METHANOL-FREE PICHIA PASTORIS EXPRESSION SYSTEM” (priority 2022, published 2026).

Test system: AOX1 promoter
Assay: Induction of the AOX1 promoter in recombinant P. pastoris cells carrying the azurin gene; western blot of culture broth with anti-azurin antibody
Type: cell-based, Pichia pastoris
Description: FIG. 1B. Relative expression levels of azurin protein in culture broths
Recombinant yeast cells were obtained by performing steps A, B and C in the study in which the recombinant DNA obtained by Inserting the azurin gene of Pseudomonas aeruginosa into pPICZαA was integrated into the genome of P. pastoris X33 strain (https://pubmed.ncbi.nlm.nih.gov/33346686/).
In this Invention, recombinant Pichia pastoris cells which carry the “azurin protein” gene (as a reference gene) from Pseudomonas aeruginosa in their genomes and can perform the extracellular production of this protein were used.
Said protein gene is located in the downstream of the AOX1 promoter in the genome of P. pastoris cells. If the AOX promoter is induced, expression of this gene inserted into the genome can be achieved. […] Methanol or farnesol was added to the culture medium In predetermined amounts every 24 hours.

Compound	protein expression level among the farnesol groups (240 farnesol group compared with 120 and 480 μL/L, 72 hours, FIG. 1B)	protein expression level relative to the 0.5% (v/v) methanol-induced group (240 farnesol group, P<0.05, FIG. 1B)	extracellular protein (azurin) production on induction of the promoter (farnesol 120 μL/L, 240 μL/L and 480 μL/L added every 24 hours, sorbitol as carbon source, 30° C., 280 rpm, 72 hours, FIG. 1A)	protein (azurin) production on induction of the promoter (methanol 0.5% v/v (control inducer) added every 24 hours, sorbitol as carbon source, 30° C., 280 rpm, 72 hours, FIG. 1A)
CC(C)=CCCC(C)=CCCC(C)=CCO [farnesol]	highest protein expression level	higher than that of the 0.5% (v/v) methanol-induced group	protein production also occurred	–
CO [methanol]	–	–	–	protein production
